Assay results published in ChEMBL document CHEMBL1201862, “PubChem BioAssay data set” (2004).
The source made the active and inactive calls.

Legend:
Beta-galactosidase = Beta-galactosidase (Escherichia coli, UniProt Q8VNN2); assay: beta-galactosidase enzyme inhibitors and activators, dose response, artefact control for CCR6 antagonist project, biochemical, E. coli enzyme, set 3 (AID 504712); type: functional
[1] = biological target: Heat shock protein HSP 90-alpha (Homo sapiens, UniProt P07900); type: functional, organism-based
Vero = assay: cells; type: functional; details: Chlorocebus sabaeus
HEK293 [2] = assay: cells; details: Homo sapiens
HEK293 [3] = assay: cells; details: Homo sapiens; remark: listed apart in the source
Cytochrome P450 3A4 = Cytochrome P450 3A4 (Homo sapiens, UniProt P08684);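 further: CYP3A4 tested as one member of a cytochrome P450 panel screen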
[4] = biological target: Voltage-gated inwardly rectifying potassium channel KCNH2 (Homo sapiens, UniProt Q12809); details: Potency;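 further: confirmatory quantitative high-throughput screen measuring inhibition of hERG channel activity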
Cytochrome P450 2C19 = Cytochrome P450 2C19 (Homo sapiens, UniProt P33261); assay: Cytochrome panel assay with activity outcomes. Panel member name: p450-cyp2c19 Compounds with AC50 equal or less than 10 uM are considered active; type: functional; details: read-out: AC50
Cytochrome P450 2C9 = Cytochrome P450 2C9 (Homo sapiens, UniProt P11712)
[5] = HEp-2 cell cytotoxicity, dose response, cytotoxicity control for RSV inhibitor project, HTS (AID 2410); type: functional; details: human respiratory syncytial virus
[6] = biological target: G-protein coupled receptor 55 (Homo sapiens, UniProt Q9Y2T6); assay: GPR55 antagonists, SAR follow-up, counter-screen for GPR35 antagonist project, imaging, image-based (AID 2397); type: functional
[7] = biological target: T1, Replicative DNA helicase DnaB (Mycobacterium tuberculosis, UniProt P9WMR3); assay: DnaB intein splicing inhibitors, dose response, biochemical, cell-free fluorescence (AID 449749); type: functional
T1 sequence (P9WMR3 whole entry): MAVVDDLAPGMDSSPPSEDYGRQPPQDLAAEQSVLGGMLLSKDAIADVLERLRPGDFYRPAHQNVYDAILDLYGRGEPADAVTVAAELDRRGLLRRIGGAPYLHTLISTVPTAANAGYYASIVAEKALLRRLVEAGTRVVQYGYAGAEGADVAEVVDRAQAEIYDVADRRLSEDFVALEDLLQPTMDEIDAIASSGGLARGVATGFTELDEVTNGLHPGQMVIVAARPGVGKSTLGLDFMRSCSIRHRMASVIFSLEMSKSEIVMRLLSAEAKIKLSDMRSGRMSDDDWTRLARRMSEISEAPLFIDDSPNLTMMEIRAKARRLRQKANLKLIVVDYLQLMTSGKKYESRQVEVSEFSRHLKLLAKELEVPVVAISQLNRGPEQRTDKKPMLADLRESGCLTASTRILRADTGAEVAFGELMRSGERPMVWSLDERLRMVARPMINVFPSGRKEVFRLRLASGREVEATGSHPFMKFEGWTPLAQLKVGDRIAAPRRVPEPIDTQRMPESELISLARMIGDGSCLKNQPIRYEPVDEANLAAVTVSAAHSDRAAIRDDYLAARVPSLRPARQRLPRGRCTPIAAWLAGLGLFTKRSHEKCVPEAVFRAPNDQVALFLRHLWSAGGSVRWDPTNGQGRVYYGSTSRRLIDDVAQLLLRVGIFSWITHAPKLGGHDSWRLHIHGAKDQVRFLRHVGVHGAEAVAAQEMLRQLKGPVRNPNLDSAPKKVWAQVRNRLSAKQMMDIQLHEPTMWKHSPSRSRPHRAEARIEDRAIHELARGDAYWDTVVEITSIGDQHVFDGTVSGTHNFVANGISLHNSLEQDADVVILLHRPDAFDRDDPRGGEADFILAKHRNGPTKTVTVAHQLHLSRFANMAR

Protein RecA = biological target: T2, Protein RecA (Mycobacterium tuberculosis, UniProt P9WHJ3); assay: Fluorescence Cell-Free Homogeneous Dose Retest to Identify Inhibitors of RecA-Intein Splicing Activity. [Related pubchem assays (depositor defined):AID2097, AID2223, AID489010, AID492950]; type: functional
T2 sequence (P9WHJ3 whole entry): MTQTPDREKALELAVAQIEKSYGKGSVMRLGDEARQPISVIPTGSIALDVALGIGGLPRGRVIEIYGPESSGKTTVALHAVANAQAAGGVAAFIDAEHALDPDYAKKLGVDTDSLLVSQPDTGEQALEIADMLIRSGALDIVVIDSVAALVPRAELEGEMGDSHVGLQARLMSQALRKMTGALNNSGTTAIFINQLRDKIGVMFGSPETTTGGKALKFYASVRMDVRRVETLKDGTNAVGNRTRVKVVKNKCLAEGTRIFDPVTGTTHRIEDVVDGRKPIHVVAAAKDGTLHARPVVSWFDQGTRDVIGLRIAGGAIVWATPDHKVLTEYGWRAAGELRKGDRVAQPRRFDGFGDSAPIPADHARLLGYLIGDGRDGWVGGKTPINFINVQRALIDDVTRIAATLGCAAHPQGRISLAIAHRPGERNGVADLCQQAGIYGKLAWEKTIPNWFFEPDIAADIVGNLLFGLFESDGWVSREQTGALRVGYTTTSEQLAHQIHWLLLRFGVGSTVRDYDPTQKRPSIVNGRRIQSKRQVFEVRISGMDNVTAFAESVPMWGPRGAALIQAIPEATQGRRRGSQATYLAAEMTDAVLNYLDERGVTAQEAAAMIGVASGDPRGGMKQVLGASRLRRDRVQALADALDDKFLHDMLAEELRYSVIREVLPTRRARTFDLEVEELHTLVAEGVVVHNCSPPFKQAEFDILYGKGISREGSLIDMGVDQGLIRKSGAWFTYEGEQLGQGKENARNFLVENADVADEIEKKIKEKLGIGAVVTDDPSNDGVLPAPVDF

Bcl-2-related protein A1 = biological target: T3, Bcl-2-related protein A1 (Mus musculus, UniProt Q07440); type: functional;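 further: confirmatory dose–response counterscreen on Bfl-1, used to check hits from a UBC13 polyubiquitin inhibitor campaign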
T3 sequence (Q07440 whole entry): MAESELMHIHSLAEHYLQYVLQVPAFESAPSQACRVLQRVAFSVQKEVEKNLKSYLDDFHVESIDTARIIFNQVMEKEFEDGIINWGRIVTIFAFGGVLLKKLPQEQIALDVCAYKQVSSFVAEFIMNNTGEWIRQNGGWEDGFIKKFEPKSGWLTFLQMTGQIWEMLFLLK

[8] = biological target: T4, Ubiquitin-conjugating enzyme E2 N (Homo sapiens, UniProt P61088); type: functional
T4 sequence (P61088 whole entry): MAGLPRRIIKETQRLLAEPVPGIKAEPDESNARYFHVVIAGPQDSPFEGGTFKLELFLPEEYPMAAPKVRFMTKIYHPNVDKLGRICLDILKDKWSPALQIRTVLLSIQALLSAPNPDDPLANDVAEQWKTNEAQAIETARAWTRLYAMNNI

[9] = biological target: T4, Ubiquitin-conjugating enzyme E2 N; type: functional; remark: listed apart in the source

Sequence of G-protein coupled receptor 55 (Q9Y2T6 whole entry): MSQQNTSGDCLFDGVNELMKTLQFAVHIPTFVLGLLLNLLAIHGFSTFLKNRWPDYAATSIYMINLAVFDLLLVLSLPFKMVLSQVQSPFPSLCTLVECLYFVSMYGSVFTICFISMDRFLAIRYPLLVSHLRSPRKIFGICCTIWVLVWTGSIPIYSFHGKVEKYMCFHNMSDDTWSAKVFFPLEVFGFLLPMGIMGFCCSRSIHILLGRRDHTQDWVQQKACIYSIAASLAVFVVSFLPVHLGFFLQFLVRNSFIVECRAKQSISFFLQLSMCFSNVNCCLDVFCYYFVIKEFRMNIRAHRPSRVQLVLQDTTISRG
Sequence of Cytochrome P450 2C9 (P11712 whole entry): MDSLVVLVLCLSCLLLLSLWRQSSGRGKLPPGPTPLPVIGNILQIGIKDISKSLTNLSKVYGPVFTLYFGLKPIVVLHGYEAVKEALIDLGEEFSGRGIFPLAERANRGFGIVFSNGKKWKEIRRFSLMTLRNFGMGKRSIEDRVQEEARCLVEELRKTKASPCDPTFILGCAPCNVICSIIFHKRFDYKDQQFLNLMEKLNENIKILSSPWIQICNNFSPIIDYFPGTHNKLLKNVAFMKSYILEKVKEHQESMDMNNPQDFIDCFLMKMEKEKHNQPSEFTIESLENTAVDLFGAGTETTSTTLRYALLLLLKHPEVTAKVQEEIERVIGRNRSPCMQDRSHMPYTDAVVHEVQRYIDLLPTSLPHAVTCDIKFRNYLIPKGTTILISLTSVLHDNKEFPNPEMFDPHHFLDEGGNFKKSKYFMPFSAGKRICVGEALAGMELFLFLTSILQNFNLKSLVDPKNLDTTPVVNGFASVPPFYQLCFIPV
Sequence of Cytochrome P450 2C19 (P33261 whole entry): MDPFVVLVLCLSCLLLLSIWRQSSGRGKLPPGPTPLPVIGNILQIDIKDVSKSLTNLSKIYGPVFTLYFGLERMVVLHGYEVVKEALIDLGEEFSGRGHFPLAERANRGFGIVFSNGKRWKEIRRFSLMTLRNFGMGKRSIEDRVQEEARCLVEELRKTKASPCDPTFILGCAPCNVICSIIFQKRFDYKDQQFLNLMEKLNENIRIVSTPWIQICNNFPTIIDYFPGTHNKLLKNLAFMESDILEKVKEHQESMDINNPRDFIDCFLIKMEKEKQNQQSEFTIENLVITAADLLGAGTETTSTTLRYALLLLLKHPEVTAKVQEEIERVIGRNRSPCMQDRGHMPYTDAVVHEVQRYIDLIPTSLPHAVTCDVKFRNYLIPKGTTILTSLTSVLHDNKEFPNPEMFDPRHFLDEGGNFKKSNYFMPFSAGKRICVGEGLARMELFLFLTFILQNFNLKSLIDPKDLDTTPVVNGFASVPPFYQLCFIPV
Sequence of Voltage-gated inwardly rectifying potassium channel KCNH2 (Q12809 whole entry): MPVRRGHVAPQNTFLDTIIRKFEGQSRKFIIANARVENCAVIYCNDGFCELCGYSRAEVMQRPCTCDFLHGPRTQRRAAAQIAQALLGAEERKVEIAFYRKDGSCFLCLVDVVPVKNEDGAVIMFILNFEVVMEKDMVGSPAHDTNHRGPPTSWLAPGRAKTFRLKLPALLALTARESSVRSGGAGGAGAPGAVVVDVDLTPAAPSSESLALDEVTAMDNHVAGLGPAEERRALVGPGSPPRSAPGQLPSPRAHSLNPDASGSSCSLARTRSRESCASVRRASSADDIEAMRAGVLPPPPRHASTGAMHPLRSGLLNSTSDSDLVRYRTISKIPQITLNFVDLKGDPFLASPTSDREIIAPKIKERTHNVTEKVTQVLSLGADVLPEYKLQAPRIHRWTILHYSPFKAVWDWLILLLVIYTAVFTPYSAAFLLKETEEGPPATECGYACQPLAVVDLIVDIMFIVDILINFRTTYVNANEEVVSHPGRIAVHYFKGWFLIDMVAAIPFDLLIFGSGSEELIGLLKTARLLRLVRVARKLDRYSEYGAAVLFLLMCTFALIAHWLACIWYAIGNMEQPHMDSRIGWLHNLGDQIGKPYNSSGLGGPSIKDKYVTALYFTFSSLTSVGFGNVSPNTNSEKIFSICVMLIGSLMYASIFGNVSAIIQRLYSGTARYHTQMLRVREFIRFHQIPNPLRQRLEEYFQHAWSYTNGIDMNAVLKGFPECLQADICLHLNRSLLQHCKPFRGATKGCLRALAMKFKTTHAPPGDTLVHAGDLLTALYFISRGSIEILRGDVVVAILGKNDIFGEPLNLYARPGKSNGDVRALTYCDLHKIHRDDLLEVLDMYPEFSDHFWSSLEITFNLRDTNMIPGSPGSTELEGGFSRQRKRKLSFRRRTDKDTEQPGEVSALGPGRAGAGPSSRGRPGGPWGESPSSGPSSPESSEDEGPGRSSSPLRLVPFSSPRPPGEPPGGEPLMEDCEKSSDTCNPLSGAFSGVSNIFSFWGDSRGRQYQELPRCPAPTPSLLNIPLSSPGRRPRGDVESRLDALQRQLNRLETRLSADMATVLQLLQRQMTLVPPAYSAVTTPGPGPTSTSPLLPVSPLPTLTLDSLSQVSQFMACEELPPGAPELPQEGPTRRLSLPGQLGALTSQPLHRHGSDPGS
Sequence of Cytochrome P450 3A4 (P08684 whole entry): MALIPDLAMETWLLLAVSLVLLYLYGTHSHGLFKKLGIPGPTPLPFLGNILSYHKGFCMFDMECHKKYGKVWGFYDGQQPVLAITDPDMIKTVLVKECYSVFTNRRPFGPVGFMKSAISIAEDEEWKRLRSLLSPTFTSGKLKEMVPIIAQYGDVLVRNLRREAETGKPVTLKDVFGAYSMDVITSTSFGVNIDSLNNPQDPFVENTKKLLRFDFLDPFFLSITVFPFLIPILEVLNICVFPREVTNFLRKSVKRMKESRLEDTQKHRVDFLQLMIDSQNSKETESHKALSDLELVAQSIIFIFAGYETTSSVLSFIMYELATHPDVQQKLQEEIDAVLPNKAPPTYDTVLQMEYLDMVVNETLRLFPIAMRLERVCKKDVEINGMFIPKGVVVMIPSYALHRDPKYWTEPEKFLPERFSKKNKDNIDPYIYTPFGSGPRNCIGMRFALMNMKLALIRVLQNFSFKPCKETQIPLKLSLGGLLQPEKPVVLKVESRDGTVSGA
Sequence of Beta-galactosidase (Q8VNN2 whole entry): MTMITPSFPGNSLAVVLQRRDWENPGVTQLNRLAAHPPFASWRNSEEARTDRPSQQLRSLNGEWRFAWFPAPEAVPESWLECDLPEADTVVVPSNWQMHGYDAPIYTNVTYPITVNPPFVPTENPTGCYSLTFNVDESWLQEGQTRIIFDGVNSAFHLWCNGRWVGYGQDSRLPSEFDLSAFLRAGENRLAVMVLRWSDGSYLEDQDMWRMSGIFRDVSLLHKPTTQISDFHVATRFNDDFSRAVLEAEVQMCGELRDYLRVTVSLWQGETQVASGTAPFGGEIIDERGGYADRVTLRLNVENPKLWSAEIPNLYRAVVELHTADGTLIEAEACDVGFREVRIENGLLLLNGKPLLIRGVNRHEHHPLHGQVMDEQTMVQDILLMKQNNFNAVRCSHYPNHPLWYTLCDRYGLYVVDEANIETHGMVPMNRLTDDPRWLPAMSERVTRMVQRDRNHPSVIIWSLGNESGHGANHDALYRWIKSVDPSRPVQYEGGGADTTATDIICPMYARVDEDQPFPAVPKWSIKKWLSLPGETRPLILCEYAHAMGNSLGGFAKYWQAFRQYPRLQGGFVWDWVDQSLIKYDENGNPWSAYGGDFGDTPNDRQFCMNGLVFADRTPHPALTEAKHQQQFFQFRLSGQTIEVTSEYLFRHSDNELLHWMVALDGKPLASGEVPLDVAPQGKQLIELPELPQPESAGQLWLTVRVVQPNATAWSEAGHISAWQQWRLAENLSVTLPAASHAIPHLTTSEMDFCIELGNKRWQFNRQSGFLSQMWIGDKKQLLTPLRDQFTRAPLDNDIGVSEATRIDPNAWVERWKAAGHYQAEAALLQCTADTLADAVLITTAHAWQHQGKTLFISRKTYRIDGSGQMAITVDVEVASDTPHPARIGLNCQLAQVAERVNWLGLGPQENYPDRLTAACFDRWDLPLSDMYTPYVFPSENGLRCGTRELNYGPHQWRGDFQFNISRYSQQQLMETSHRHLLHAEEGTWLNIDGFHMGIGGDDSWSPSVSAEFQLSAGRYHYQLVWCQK

## O=C1Nc2ccc(Br)cc2/C1=C/C(=O)c1ccccc1
Beta-galactosidase
  IC50: > 66.6 µM (inactive)
[1]
  AC50: 0.986 µM (active)
Vero
  CC50: 19.1 µM (active)
HEK293 [2]
  EC50: > 59.6 µM (inactive)
HEK293 [3]
  EC50: > 59.6 µM (inactive)

## [Cl-].[Li+] [CHLOROLITHIUM]
Cytochrome P450 3A4
  AC50: 31.6 µM (inconclusive)
[4]
  AC50: 6.31 µM (inconclusive)

## COc1ccc(NC(=O)c2ccc(C)cc2Cl)c([N+](=O)[O-])c1
Cytochrome P450 2C19
  AC50: 3.55 µM (inconclusive)
Cytochrome P450 2C9
  AC50: inconclusive

## O=C(CCCN1C(=O)/C(=C\c2cccs2)SC1=S)Nc1ccc(O)cc1
[5]
  CC50: 12.5 µM (active)
[6]
  IC50: 29.5 µM (inactive)
[7]
  AC50: 2.19 µM (active)
Protein RecA
  EC50: 5.95 µM (active)

## CCN1C(=O)c2cccc3c(NC(=O)c4ccc(S(=O)(=O)N5CCOCC5)cc4)ccc1c23
Bcl-2-related protein A1
  IC50: > 20 µM (inactive)
[8]
  IC50: 10.4 µM (active)
[9]
  IC50: 9.74 µM (active)
